# Experiments:
# [1] = Inhibition of influenza A virus A/PR/8/34(H1N1)) sialidase
# [2] = Inhibition of influenza A virus A/Memphis/1/71(H3N2)) sialidase; parameters: species or system Influenza A virus (A/Memphis/1/1971(H3N2))
SMILES,IC50 [1] [mM],IC50 [2] [mM]
CC(=O)N[C@@H]1[C@@H]([C@H](O)[C@H](O)CO)O[C@](SCCCCCOCCCSCCC[Si](CCCSCCCOCCCCCS[C@@]2(C(=O)O)C[C@@H](O)[C@H](NC(C)=O)[C@@H]([C@H](O)[C@H](O)CO)O2)(CCCSCCCOCCCCCS[C@@]2(C(=O)O)C[C@@H](O)[C@H](NC(C)=O)[C@@H]([C@H](O)[C@H](O)CO)O2)CCCSCCCOCCCCCS[C@@]2(C(=O)O)C[C@@H](O)[C@H](NC(C)=O)[C@@H]([C@H](O)[C@H](O)CO)O2)(C(=O)O)C[C@H]1O,5,5
CC(=O)N[C@@H]1[C@@H]([C@H](O)[C@H](O)CO)O[C@](SCCCCCOCCCSCCC[Si](CCCSCCCOCCCCCS[C@@]2(C(=O)O)C[C@@H](O)[C@H](NC(C)=O)[C@@H]([C@H](O)[C@H](O)CO)O2)(CCCSCCCOCCCCCS[C@@]2(C(=O)O)C[C@@H](O)[C@H](NC(C)=O)[C@@H]([C@H](O)[C@H](O)CO)O2)CCC[Si](C)(C)CCC[Si](CCCSCCCOCCCCCS[C@@]2(C(=O)O)C[C@@H](O)[C@H](NC(C)=O)[C@@H]([C@H](O)[C@H](O)CO)O2)(CCCSCCCOCCCCCS[C@@]2(C(=O)O)C[C@@H](O)[C@H](NC(C)=O)[C@@H]([C@H](O)[C@H](O)CO)O2)CCCSCCCOCCCCCS[C@@]2(C(=O)O)C[C@@H](O)[C@H](NC(C)=O)[C@@H]([C@H](O)[C@H](O)CO)O2)(C(=O)O)C[C@H]1O,5,1.25
CC(=O)N[C@@H]1[C@@H]([C@H](O)[C@H](O)CO)O[C@](SCCCCCOCCCSCCC[Si](CCCSCCCOCCCCCS[C@@]2(C(=O)O)C[C@@H](O)[C@H](NC(C)=O)[C@@H]([C@H](O)[C@H](O)CO)O2)(CCCSCCCOCCCCCS[C@@]2(C(=O)O)C[C@@H](O)[C@H](NC(C)=O)[C@@H]([C@H](O)[C@H](O)CO)O2)c2ccccc2)(C(=O)O)C[C@H]1O,5,5
